In publication PMC11180795 (Frontiers in Pharmacology, 2024):

Key:
NO production = system: NO production; set-up: method as in Liu et al., 2016; conditions: ref Liu et al., 2016; read-out: IC50, inhibition of NO production; cited from earlier work
[1] = Cytotoxicity MTT assay on RAW 264.7 cells; assay type: cell-based, Murine; conditions: mouse, RAW 264.7 macrophage cells, 48 h incubation, read-out: IC50, cytotoxic effect on RAW264.7 cells
Method: Murine macrophage RAW 264.7 cell line obtained from the American Type Culture Collection (Rockville, MD, United States) was maintained in DMEM supplemented with 10% fetal calf serum (FCS) and 1% penicillin/streptomycin/fungizone (PSF) under standard cell culture conditions at 37°C and 5% CO2 in a humidified environment.
The cytotoxic effect of compounds on RAW 264.7 cells was assessed using the 3-(4, 5-dimethylthiazol-2-yl)-2, 5-diphenyl tetrazolium bromide (MTT) assay as established by Mosmann ([Mosmann, 1983]) with slight modifications. Briefly, cells were seeded at a density of 1 × 10^5 cells/mL (100 µL) in 96-well microtitre plates and incubated at 37°C and 5% CO2 in a humidified environment. After 24 h incubation, 100 µL of compounds (at concentration ranged from to 250 μM–1.95 µM) were added to the wells containing cells and further incubated for 48 h in a CO2 incubator. A suitable control (untreated cells) was included and doxorubicin was used as a positive reference. Thereafter, the medium in each well was aspirated from the cells, which were then washed with PBS, and finally fresh medium (200 µL) was added to each well. Then, 30 µL of MTT (5 mg/mL in PBS) was added to each well and the plates were incubated at 37°C for 4 h. The medium was aspirated from the wells and DMSO was added to solubilize the formed formazan crystals. The absorbance was read at 570 nm (SpectraMax 190, Molecular devices). The percentage of cell inhibition was calculated with reference to the control (untreated cells taken as 100% viability). Then, the IC50 values of plant compounds showing more than 50% cell growth inhibition were calculated by plotting the percentage inhibition against the concentration.

[2] = system: RAW 264.7 macrophage cells; set-up: method as in Sukandar et al., 2023; conditions: final concentration of 100 μM, ref Sukandar et al., 2023; cited from earlier work

Q: For garcinoxanthone C, which IC50 (NO production) is on record?
A: 18 µM

Q: What does the source list for `CC(C)=CCCC1(C)C=Cc2c(cc3oc4c(O)ccc(O)c4c(=O)c3c2O)O1` (stereo not shown) [Compound 3, Smeathxanthone B]?
A: IC50 at 48 h [1]: > 100 µM; melting point: 187 to 189 °C

Q: With garcinoxanthone B as the compound, how does the IC50 (NO production) read?
A: 11.3 µM

Q: For `COc1cccc2c1C(=O)c1c(O)c3c(c(O)c1C2=O)C[C@@](O)(C(=O)CO)C[C@@H]3O[C@H]1C[C@H](N)[C@H](O)[C@H](C)O1` [Doxorubicin, doxorubicin, reference compound], which IC50 at 48 h [1] is on record?
A: 4.63 µM

Q: What does the source list for `CC12CCC3C1C(c1c(cc(O)c(C(=O)c4ccccc4)c1O)O2)C3(C)C` (stereo not shown) [clusiacyclol A]?
A: NO inhibition [2]: over 85%; cytotoxicity (in words) [2]: without obvious cytotoxicity
